According to patent US20170304178A1, “Peptides and Their Use in the Treatment of Skin” (AVON PRODUCTS, INC., priority 2014, published 2017):
Marks after values point to notes of the source that are not given here. Residues, ends and D or L forms follow the SMILES beside them.

Assays:
[1] = test system: human dermal fibroblast cells; test: Secreted hyaluronic acid (HA) in media of human dermal fibroblasts (HA Elisa kit); type: cell-based; conditions: 48 h, percent change relative to vehicle control
Experimental: (§1) Human dermal fibroblast cells were grown in a 96 well plate in DMEM media (available from Corning, N.Y.) supplemented with 10% Fetal Bovine Serum (FBS) and L-glutamine (0.07×10^5 cells/plate). After reaching about 75% confluence, cells were transferred into DMEM media without FBS and incubated for 4-6 hours. Next, cells were treated with peptides of Formulas I-V at 0.00001%, 0.0001%, 0.001% final concentration in DMEM media without FBS for 48 h. After treatment the media were collected, and cell viability was measured using MTT. The amount of secreted collagen was tested in the media using HTRF human pro-collagen I kit (Cisbio Inc, Bedford, Mass.). The amount of secreted Hyaluronic Acid (HA) was tested in the media using HA Elisa kit (available from Corgenix, Broomfield, Colo.).
(§2) Results are summarized in Table 1 below as percent change of pro-collagen I and HA production relative to vehicle control: […]

[2] = test system: human dermal fibroblast cells; test: Secreted pro-collagen I in media of human dermal fibroblasts (HTRF human pro-collagen I kit); type: cell-based; conditions: 48 h, percent change relative to vehicle control
Experimental: as §1, §2

Row | SMILES | Increase in HA Production ([1]; peptide concentration 0.001%) | Increase in HA Production ([1]; peptide concentration 0.0001%) | Increase in Pro-Collagen I Production ([2]; peptide concentration 0.00001%) | Increase in Pro-Collagen I Production ([2]; peptide concentration 0.001%)
1 | CCC(C)C(NC(=O)C(CCCCN)NC(=O)C(NC(=O)C(NC(=O)C(N)CCCNC(=N)N)C(C)O)C1CCCN1)C(=O)NC(CO)C(=O)NC(CCCCN)C(=O)NC(C(=O)NC(C(=O)NC(CCCCN)C(=O)NC(Cc1ccccc1)C(=O)NC(CCC(=O)O)C(=O)NC(CC(C)C)C(=O)NC(CO)C(=O)NCC(=O)O)C(C)CC)C1CCCN1 (stereo not drawn) [RTPKISKPIKFELSG (SEQ ID NO: 5), Arg-Thr-Pro-Lys-Ile-Ser-Lys-Pro-Ile-Lys-Phe-Glu-Leu-Ser-Gly] | +20-50% |  |  | 
2 | CSCCC(N)C(=O)NC(C(=O)NC(C(=O)O)C(C)C)C(C)C (stereo not drawn) [MVV (SEQ ID NO: 2), Met-Val-Val] (H-Met-Val-Val-OH; configuration not given here) |  | +20-50% |  | 
3 | CC(C)CC(N)C(=O)NC(CCCNC(=N)N)C(=O)NC(CC(C)C)C(=O)NC(CCCCN)C(=O)O (stereo not drawn) [LRLK (SEQ ID NO: 1), Leu-Arg-Leu-Lys] (H-LRLK-OH; configuration not given here) | +20-50% |  |  | 
4 | CC(NC(=O)CNC(=O)C(CC(=O)O)NC(=O)C(CCCCN)NC(=O)C(C)NC(=O)C(N)C(C)O)C(=O)NC(C(=O)O)C1CCCN1 (stereo not drawn) [TAKDGAP (SEQ ID NO: 3), Thr-Ala-Lys-Asp-Gly-Ala-Pro] | +50-90% |  | +10-30%** | 
5 | CCC(C)C(N)C(=O)NC(Cc1ccccc1)C(=O)NCC(=O)NCC(=O)NC(C(=O)NC(C(=O)NC(Cc1ccc(O)cc1)C(=O)NC(CCCNC(=N)N)C(=O)NC(CO)C(=O)O)C(C)C)C(C)O (stereo not drawn) [IFGGTVYRS (SEQ ID NO: 4), Ile-Phe-Gly-Gly-Thr-Val-Tyr-Arg-Ser] (H-IFGGTVYRS-OH; configuration not given here) | +50-90% |  |  | +10-30%
